Measurements taken from patent US20030082112A1, “Composition” (Unilever Home & Personal Care USA, Division of Conopco, Inc., priority 2001, published 2003).

Experiment: Storage stability of the alkyl hydroxybenzoate in the alkaline chalk oral care formulation
Assay type: physicochemical
Settings: 37° C. for two months; 1.0 w/w % in fine ground natural chalk formulation of the Example
Description: The following formulation is a composition according to the invention and is made by ordinary methods known to a skilled person.
This octyl parahydroxy benzoic acid in this formulation was stable at 37° C. for two months.

CCCCCCCCOC(=O)c1ccc(O)cc1 [octyl parahydroxy benzoic acid]
stability in the formulation: stable
